This is an account of results in US10519106B2, “Urea derivative and use therefor” (Toray Industries, Inc., priority 2015, dated 2019).

Where a name gives a salt, the structure may show the parent alone.

The target in the test is T1, intracellular domain of DDR1 (Homo sapiens, UniProt Q08345).
T1 construct: the intracellular domain of DDR1 (in a final concentration of 5 ng/μL) (Carna Biosciences, Inc.); purchased Carna Biosciences, Inc
T1 sequence (Q08345 444-876 isoform Q08345-2 limits assumed): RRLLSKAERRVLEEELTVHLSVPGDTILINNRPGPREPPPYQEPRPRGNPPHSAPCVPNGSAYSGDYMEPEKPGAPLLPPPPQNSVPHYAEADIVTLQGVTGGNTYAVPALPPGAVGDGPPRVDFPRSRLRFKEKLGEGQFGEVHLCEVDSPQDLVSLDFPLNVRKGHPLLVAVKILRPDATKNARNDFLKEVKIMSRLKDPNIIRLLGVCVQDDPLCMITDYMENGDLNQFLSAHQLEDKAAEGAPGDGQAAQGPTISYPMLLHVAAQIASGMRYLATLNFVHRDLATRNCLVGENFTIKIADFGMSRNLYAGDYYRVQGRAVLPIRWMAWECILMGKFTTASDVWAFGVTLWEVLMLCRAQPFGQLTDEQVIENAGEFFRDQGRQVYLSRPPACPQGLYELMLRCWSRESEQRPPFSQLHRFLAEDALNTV
The test can be described thus: Evaluation of DDR1 inhibition activity with HTRF KinEASE-TK kit. Type of test: biochemical. Conditions: intracellular domain of DDR1 5 ng/μL, ATP 25 mol/L (so in the source), TK Substrate-biotin 1000 nmol/L, room temperature, one hour. As for the experimental part: The DDR1 inhibition activity of the compounds of Examples 1 to 51 was evaluated with HTRF® KinEASE-TK kit (Cisbio Bioassays).
Each test substance was dissolved in dimethyl sulfoxide (hereinafter referred to as DMSO) and then used for the evaluation as described below. Moreover, each of test substances and reagents was diluted in the kinase buffer (Cisbio Bioassays) prepared by adding thereto MgCl2, MnCl2, DTT, and the Supplemental Enzyme buffer (Cisbio Bioassays) to concentrations of 5 mmol/L, 0.5 mmol/L, 0.25 mmol/L, and 50 nmol/L, respectively, and then used. Each test substance (in DMSO in a final concentration of 1%), the intracellular domain of DDR1 (in a final concentration of 5 ng/μL) (Carna Biosciences, Inc.), the phosphate donor ATP (in final concentration of 25 mol/L) (Sigma), and the substrate TK Substrate-biotin (in a final concentration of 1000 nmol/L) (Cisbio Bioassays) were added to a 384-well black plate (Corning) and allowed to react at room temperature for one hour. After completion of the reaction, the TK Antibody-Cryptate (Cisbio Bioassays) and the Streptavidin-XL665 (Cisbio Bioassays) were added thereto and allowed to react at room temperature for one hour. In addition, the plate was provided with a well to which a test substance was not added, and with a well to which the intracellular domain of DDR1 and a test substance were not added.
The fluorescence intensity in each well was measured using a multi-label counter (Envision, PerkinElmer; excitation wavelength: 320 nm, measurement wavelength: 665 nm and 620 nm) to calculate a Ratio (the fluorescence intensity at 665 nm/the fluorescence intensity at 620 nm). The inhibition rate (%) of a test substance at each concentration was calculated based on the formula below. Inhibition rate (%)=([the Ratio obtained from the well containing no test substance]−[the Ratio from a well containing a test substance])/([the Ratio obtained from the well containing no test substance]−[the Ratio obtained from the well containing no intracellular domain of DDR1 and no test substance])×100
The calculated inhibition rates were fitted to a sigmoidal dose-response curve by regression analysis using the Prism 5.04 (GraphPad Software, Inc.) to calculate the ICso0 value of the test substance.
For orientation: IC50 means the point on the concentration scale where inhibition reaches its midpoint. With `CN1CCN(Cc2ccc(NC(=O)NCc3ccccc3Oc3ccc(C(N)=O)cc3)cc2C(F)(F)F)CC1` [Compound of Example 38, 4-(2-((3-(4-((4-methylpiperazin-1-yl)methyl)-3-(trifluoromethyl)phenyl)ureido)methyl)phenoxy)benzamide], the IC50 was determined as 4.64 nM. That is a single-digit nanomolar value.
Consider `COc1ccc(C(F)(F)F)cc1NC(=O)NCc1ccccc1Oc1ccc(C(N)=O)cc1` [Compound of Example 31], for which the IC50 came to 11 nM.
Consider `COc1ccc(OC(F)(F)F)cc1NC(=O)NCc1ccccc1Oc1ccc(C(=O)O)cc1` [Compound of Example 26], for which the IC50 was found to be 38.3 nM.
Turning to `CNC(=O)c1ccc(Oc2ccccc2CNC(=O)Nc2cc(C(F)(F)F)ccc2OC2COC2)cc1` [Compound of Example 43, 4-(2-((3-(2-(oxetan-3-yloxy)-5-(trifluoromethyl)phenyl)ureido)methyl)phenoxy)-N-methyl-benzamide], inhibition was half-maximal at 78.5 nM (IC50). This IC50 lies about 2-fold higher than the previous one.
Compound `COc1ccc(OC(F)(F)F)cc1NC(=O)NCc1ccccc1OCc1cccnc1` [Compound of Example 3] returned an IC50 of 838 nM.
As to `COc1ccc(OC(F)(F)F)cc1NC(=O)NCc1ccccc1OCc1ccc(C(=O)O)cc1` [Compound of Example 8, 4-((2-((3-(2-methoxy-5-(trifluoromethoxy)phenyl)ureido)methyl)phenoxy)methyl)benzoic acid], the IC50 was found to be 172 nM.
In the case of `CNC(=O)c1ccc(Oc2ccccc2CNC(=O)Nc2cccc(C(F)(F)F)c2)cc1` [Compound of Example 42], the IC50 was determined as 21.5 nM.
As for `COc1ccc(OC(F)(F)F)cc1NC(=O)NCc1ccccc1OCc1ccc(C(=O)N(C)C)cc1` [Compound of Example 14, 4-((2-((3-(2-methoxy-5-(trifluoromethoxy)phenyl)ureido)methyl)phenoxy)methyl)-N,N-dimethylbenzamide], the figure is 156 nM; as for `COc1ccc(OC(F)(F)F)cc1NC(=O)NCc1ccccc1OCc1cccc(C(=O)O)c1` [Compound of Example 9, 3-((2-((3-(2-methoxy-5-(trifluoromethoxy)phenyl)ureido)methyl)phenoxy)methyl)benzoic acid], 137 nM; as for `COc1ccc(S(F)(F)(F)(F)F)cc1NC(=O)NCc1ccccc1OCc1ccncc1` [Compound of Example 1], 52.1 nM.
In turn, `COc1ccc(OC(F)(F)F)cc1NC(=O)NCc1ccccc1OCc1ccncc1` [Compound of Example 4] showed an IC50 of 51.7 nM.
`COc1ccc(C(F)(F)F)cc1NC(=O)NCc1ccccc1OCc1ccc(C(N)=O)cc1` [Compound of Example 18, 4-((2-((3-(2-methoxy-5-(trifluoromethyl)phenyl)ureido)methyl)phenoxy)methyl)benzamide] yielded an IC50 of 23.3 nM.
Regarding `COc1ccc(C(F)(F)F)cc1NC(=O)NCc1ccccc1OCc1cccc(C(N)=O)c1` [Compound of Example 21, 3-((2-((3-(2-methoxy-5-(trifluoromethyl)phenyl)ureido)methyl)phenoxy)methyl)benzamide], the IC50 came to 67.4 nM.
In turn, `COc1ccc(S(F)(F)(F)(F)F)cc1NC(=O)NCc1ccccc1Oc1ccncc1` [Compound of Example 23, 1-(2-methoxy-5-(pentafluorosulfanyl)phenyl)-3-(2-(pyridin-4-yloxy)benzyl)urea hydrochloride] showed an IC50 of 78.7 nM.
As for `NC(=O)c1cccc(Oc2ccccc2CNC(=O)Nc2cccc(C(F)(F)F)c2)c1` [Compound of Example 44], the figure is 23.7 nM; as for `NC(=O)c1ccc(Oc2ccccc2CNC(=O)Nc2cccc(C(F)(F)F)c2)cc1` [Compound of Example 32], 17.3 nM.
